Where “and” joins values, the source holds several entries; their conditions need not be identical. Identical values can stand only once. No end group written: not given here.
How the values were obtained:
[1] = Circular dichroism secondary structure in Euk33 ULVs; format: physicochemical; settings: 10 μM peptide, 15 mM PBS pH 7, 37 °C
[2] = Circular dichroism secondary structure in G(−)IM ULVs; format: physicochemical; settings: 10 μM peptide, 15 mM PBS pH 7, 37 °C
Experimental: Unilamellar vesicles (ULVs) of ∼600 Å diameter were prepared using an Avanti extruder: 200 μL of 20 mg/ml G(−)IM lipid in 15 mM PBS was extruded 21 times through Nucleopore filters of size 500 Å using 0.2 mL Hamilton syringes in the Avanti extruder. The final concentration of G(−)IM lipid in the ULVs was determined gravimetrically to be 15 mg/ml. Concentrated ULVs were added to 3 mL of 10 μM peptide in 15 mM PBS at pH 7 to create lipid/peptide molar ratios between 0:1 and 70:1. The samples remained at room temperature for ∼16 h before the CD measurement. Data were collected in 3 mL quartz cuvettes using a Jasco 1500 CD spectrophotometer at 37 °C in the Center for Nucleic Acids Science and Technology at Carnegie Mellon University. The samples were scanned from 200 to 240 nm 20 times, and the ellipticity (ϵ) results were averaged. Temperature was controlled at 37 °C via a Peltier element and water circulation through the sample compartment. Nitrogen gas was used at a flow rate between 20 and 25 ft^3/h (CFH). The parameters for scanning were: speed 100 nm/min, step size 1.0 nm, response time 1 second, bandwidth 1 nm, and sensitivity of 20 mdeg. OriginPro 2019 (OriginLab, Northampton, MA) was used to carry out a linear least-squares fit of the smoothed ellipticity traces to four secondary structural motifs representing α-helix, β-sheet, β-turn, and random coil.[20] This analysis gives a percentage match of each of the secondary structural motifs to the total sample ellipticity. Data were finally converted to mean residue ellipticity, taking into account the peptide concentration (10 μMolar) and number of amino acids (N), using the equation: MRE = (10^4/N)ϵ deg cm^2/dmol.

[3] = system: eukaryotic cells vs bacteria; experiment: Therapeutic index (eukaryotic cell kill concentration / bacterial kill concentration); format: cell-based
Experimental: But more important than cytotoxicity is the therapeutic index (TI), which is the concentration at which ≥90% of eukaryotic cells are killed divided by the concentration at which ≥90% of bacteria are killed. For A4-153, this TI value is an estimated ≈ 128 μM/16 μM ≈ 8. TI for A4-157 is an estimated 128 μM/24 μM ≈ 5, and the TI for A4-183 is an estimated 64 μM/20 μM ≈ 3.

[4] = system: HBE cells; format: cell-based
Experimental: (§1) page 4: Additional toxicity studies at 16 hours incubation with peptides Figure S3. Figure S4. […]

[5] = system: THP-1 cells; format: cell-based
Experimental: as §1

[6] = G(−)IM/peptide molar ratio 10:1
[7] = G(−)IM/peptide molar ratio 15:1
[8] = G(−)IM/peptide molar ratio 20:1
[9] = G(−)IM/peptide molar ratio 25:1
[10] = G(−)IM/peptide molar ratio 30:1
[11] = G(−)IM/peptide molar ratio 50:1

Question: With FKKFLKKFKGWLGGLWGK [A4-183] as the sequence, how does the Random ([1]; Euk33/peptide molar ratio 0:1) read?
Answer: Its Random is 65.9%.

Question: And the α-helix ([1]; Euk33/peptide molar ratio 0:1)?
Answer: The α-helix was 3.1%.

Question: And the β-sheet ([1]; Euk33/peptide molar ratio 0:1)?
Answer: The β-sheet was 31.0%.

Question: What about the β-turn ([1]; Euk33/peptide molar ratio 0:1) of the same sequence?
Answer: Its β-turn is 0%.

Question: And the Random ([1]; Euk33/peptide molar ratio 5:1)?
Answer: Its Random is 64.1%.

Question: What about the α-helix ([1]; Euk33/peptide molar ratio 5:1) of the same sequence?
Answer: Its α-helix is 8.6%.

Question: And the β-sheet ([1]; Euk33/peptide molar ratio 5:1)?
Answer: Its β-sheet is 27.3%.

Question: And the β-turn ([1]; Euk33/peptide molar ratio 5:1)?
Answer: Its β-turn is 0%.

Question: And the Random ([1]; Euk33/peptide molar ratio 10:1)?
Answer: The Random was 67.8%.

Question: What about the α-helix ([1]; Euk33/peptide molar ratio 10:1) of the same sequence?
Answer: The α-helix was 13.0%.

Question: What about the β-sheet ([1]; Euk33/peptide molar ratio 10:1) of the same sequence?
Answer: The β-sheet was 19.2%.

Question: And the β-turn ([1]; Euk33/peptide molar ratio 10:1)?
Answer: Its β-turn is 0%.

Question: And the Random ([1]; Euk33/peptide molar ratio 20:1)?
Answer: Its Random is 61.2%.

Question: And the α-helix ([1]; Euk33/peptide molar ratio 20:1)?
Answer: The α-helix was 10.4%.

Question: What about the β-sheet ([1]; Euk33/peptide molar ratio 20:1) of the same sequence?
Answer: Its β-sheet is 28.4%.

Question: And the β-turn ([1]; Euk33/peptide molar ratio 20:1)?
Answer: The β-turn was 0%.

Question: What about the Random ([1]; Euk33/peptide molar ratio 30:1) of the same sequence?
Answer: Its Random is 60.0%.

Question: What about the α-helix ([1]; Euk33/peptide molar ratio 30:1) of the same sequence?
Answer: Its α-helix is 13.6% and 14%.

Question: What about the β-sheet ([1]; Euk33/peptide molar ratio 30:1) of the same sequence?
Answer: The β-sheet was 26.4%.

Question: What about the β-turn ([1]; Euk33/peptide molar ratio 30:1) of the same sequence?
Answer: Its β-turn is 0%.

Question: What about the Random ([1]; Euk33/peptide molar ratio 70:1) of the same sequence?
Answer: The Random was 37.4%.

Question: What about the α-helix ([1]; Euk33/peptide molar ratio 70:1) of the same sequence?
Answer: The α-helix was 12.2%.

Question: What about the β-sheet ([1]; Euk33/peptide molar ratio 70:1) of the same sequence?
Answer: The β-sheet was 50.4%.

Question: What about the β-turn ([1]; Euk33/peptide molar ratio 70:1) of the same sequence?
Answer: Its β-turn is 0%.

Question: And the Random ([2]; G(−)IM/peptide molar ratio 0:1)?
Answer: Its Random is 65.9%.

Question: What about the α-helix ([2]; G(−)IM/peptide molar ratio 0:1) of the same sequence?
Answer: Its α-helix is 3.1%.

Question: And the β-sheet ([2]; G(−)IM/peptide molar ratio 0:1)?
Answer: Its β-sheet is 31.0%.

Question: And the β-turn ([2]; G(−)IM/peptide molar ratio 0:1)?
Answer: The β-turn was 0%.

Question: What about the Random ([2]; G(−)IM/peptide molar ratio 1:1) of the same sequence?
Answer: Its Random is 64.1%.

Question: And the α-helix ([2]; G(−)IM/peptide molar ratio 1:1)?
Answer: Its α-helix is 4.7%.

Question: And the β-sheet ([2]; G(−)IM/peptide molar ratio 1:1)?
Answer: The β-sheet was 31.2%.

Question: What about the β-turn ([2]; G(−)IM/peptide molar ratio 1:1) of the same sequence?
Answer: Its β-turn is 0%.

Question: And the Random ([2]; G(−)IM/peptide molar ratio 5:1)?
Answer: Its Random is 59.2%.

Question: What about the α-helix ([2]; G(−)IM/peptide molar ratio 5:1) of the same sequence?
Answer: The α-helix was 22.6%.

Question: And the β-sheet ([2]; G(−)IM/peptide molar ratio 5:1)?
Answer: The β-sheet was 18.2%.

Question: What about the β-turn ([2]; G(−)IM/peptide molar ratio 5:1) of the same sequence?
Answer: The β-turn was 0%.

Question: And the Random [2, 6]?
Answer: Its Random is 29.1%.

Question: And the α-helix [2, 6]?
Answer: Its α-helix is 44.4%.

Question: And the β-sheet [2, 6]?
Answer: The β-sheet was 14.9%.

Question: What about the β-turn [2, 6] of the same sequence?
Answer: The β-turn was 11.6%.

Question: And the Random [2, 7]?
Answer: The Random was 0.4%.

Question: What about the α-helix [2, 7] of the same sequence?
Answer: Its α-helix is 63.0%.

Question: And the β-sheet [2, 7]?
Answer: Its β-sheet is 14.1%.

Question: What about the β-turn [2, 7] of the same sequence?
Answer: The β-turn was 22.5%.

Question: And the Random [2, 8]?
Answer: The Random was 12.4%.

Question: And the α-helix [2, 8]?
Answer: Its α-helix is 66.7%.

Question: And the β-sheet [2, 8]?
Answer: Its β-sheet is 8.8%.

Question: What about the β-turn [2, 8] of the same sequence?
Answer: The β-turn was 12.1%.

Question: What about the Random [2, 9] of the same sequence?
Answer: The Random was 11.7%.

Question: What about the α-helix [2, 9] of the same sequence?
Answer: Its α-helix is 64.9%.

Question: And the β-sheet [2, 9]?
Answer: Its β-sheet is 12.5%.

Question: And the β-turn [2, 9]?
Answer: Its β-turn is 10.9%.

Question: What about the Random [2, 10] of the same sequence?
Answer: Its Random is 13.0%.

Question: And the α-helix [2, 10]?
Answer: The α-helix was 69.4%.

Question: And the β-sheet [2, 10]?
Answer: Its β-sheet is 8.7%.

Question: What about the β-turn [2, 10] of the same sequence?
Answer: The β-turn was 8.9%.

Question: What about the Random [2, 11] of the same sequence?
Answer: The Random was 18.2%.

Question: And the α-helix [2, 11]?
Answer: The α-helix was 63.6%.

Question: What about the β-sheet [2, 11] of the same sequence?
Answer: The β-sheet was 9.1%.

Question: What about the β-turn [2, 11] of the same sequence?
Answer: The β-turn was 9.1%.

Question: And the “concentration at which ≥90% of bacteria are killed” value ([3]; denominator of TI)?
Answer: The value was 20 µM.

Question: What about the “concentration at which ≥90% of eukaryotic cells are killed (estimated)” value ([3]; numerator of TI) of the same sequence?
Answer: The value was ~64 µM.

Question: What about the “cytotoxicity” value [4] of the same sequence?
Answer: The value was “greatest cytotoxicity at high concentrations”.

Question: What about the “cytotoxicity” value [5] of the same sequence?
Answer: Its value is “less toxic in THP-1 cells than in the other cell types”.

From publication PMC10265666, “Lung SPLUNC1 Peptide Derivatives in the Lipid Membrane Headgroup Kill Gram-Negative Planktonic and Biofilm Bacteria” (Biomacromolecules, 2023)
